These results are taken from patent publication US20080119481A1, “Crystalline forms of 6-methoxy-8-[4-(1-(5-fluoro)-quinolin-8-yl-piperidin-4-yl)-piperazin-1-yl]-quinoline” (Wyeth, priority 2006, published 2008).

The structures appear in SMILES notation. Values joined by “and” are separate entries in the source; they are usually repeats but may differ in a detail not shown here. Identical values can stand only once.

With `COc1cc(N2CCN(C3CCN(c4ccc(F)c5cccnc45)CC3)CC2)c2ncccc2c1` (hydrate or solvate) [Form A, 6-methoxy-8-[4-(1-(5-fluoro)-quinolin-8-yl-piperidin-4-yl)-piperazin-1-yl]-quinoline], the melting point is ~ 196 °C and 198 °C.
